Test results reported in ChEMBL document CHEMBL3596163, “Discovery of imidazo[1,5-a]pyridines and -pyrimidines as potent and selective RORc inverse agonists” (Bioorg Med Chem Lett, 2015).

Columns and labels:
PBMC [1] = test: Cytotoxicity against human PBMC assessed as effect on cell physiology after 48 hrs by CellTiter-Glo assay; format: cell-based
[2] = target: T1, Nuclear receptor ROR-beta (Homo sapiens, UniProt Q92753); test: Inverse agonist activity at GAL4-fused human RORb expressed in HEK293T cells assessed as suppression of basal transcriptional activity after 20 hrs by dual-glo luciferase reporter gene assay; format: cell-based, HEK-293T
T1 sequence (Q92753 whole entry): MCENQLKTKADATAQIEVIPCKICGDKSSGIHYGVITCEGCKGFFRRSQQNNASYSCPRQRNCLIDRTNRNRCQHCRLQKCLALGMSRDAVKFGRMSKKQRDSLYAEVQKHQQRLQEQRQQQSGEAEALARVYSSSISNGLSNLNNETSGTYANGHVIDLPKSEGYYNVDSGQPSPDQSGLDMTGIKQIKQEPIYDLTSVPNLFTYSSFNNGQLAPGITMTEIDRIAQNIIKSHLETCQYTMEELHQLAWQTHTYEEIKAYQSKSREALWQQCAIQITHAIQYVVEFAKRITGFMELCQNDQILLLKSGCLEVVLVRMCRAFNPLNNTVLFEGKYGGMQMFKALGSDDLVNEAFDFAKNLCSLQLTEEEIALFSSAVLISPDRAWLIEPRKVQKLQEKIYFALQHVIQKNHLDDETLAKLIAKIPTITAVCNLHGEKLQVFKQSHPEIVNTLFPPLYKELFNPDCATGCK

Bile acid receptor = target: T2, Bile acid receptor (Homo sapiens, UniProt Q96RI1); test: Agonist activity at GAL4-fused human FXR expressed in HEK293T cells assessed as activation of basal transcriptional activity after 20 hrs by dual-glo luciferase reporter gene assay; format: cell-based, HEK-293T
T2 sequence (Q96RI1 whole entry): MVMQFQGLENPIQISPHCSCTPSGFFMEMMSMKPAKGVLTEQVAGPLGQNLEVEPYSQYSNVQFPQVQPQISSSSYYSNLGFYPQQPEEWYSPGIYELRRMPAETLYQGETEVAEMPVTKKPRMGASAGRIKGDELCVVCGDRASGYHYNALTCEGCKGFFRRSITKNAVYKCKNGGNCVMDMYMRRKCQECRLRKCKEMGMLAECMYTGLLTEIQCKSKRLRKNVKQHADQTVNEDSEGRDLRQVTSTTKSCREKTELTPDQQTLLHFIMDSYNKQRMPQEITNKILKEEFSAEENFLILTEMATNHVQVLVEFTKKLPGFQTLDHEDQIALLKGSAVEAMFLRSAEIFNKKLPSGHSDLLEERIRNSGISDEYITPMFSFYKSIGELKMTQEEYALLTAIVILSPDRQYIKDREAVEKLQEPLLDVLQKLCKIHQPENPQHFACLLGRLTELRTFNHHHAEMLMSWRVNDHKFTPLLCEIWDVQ

[3] = target: T3, Oxysterols receptor LXR-beta (Homo sapiens, UniProt P55055); test: Agonist activity at GAL4-fused human LXRbeta expressed in HEK293T cells assessed as activation of basal transcriptional activity after 20 hrs by dual-glo luciferase reporter gene assay; format: cell-based, HEK-293T
T3 sequence (P55055 whole entry): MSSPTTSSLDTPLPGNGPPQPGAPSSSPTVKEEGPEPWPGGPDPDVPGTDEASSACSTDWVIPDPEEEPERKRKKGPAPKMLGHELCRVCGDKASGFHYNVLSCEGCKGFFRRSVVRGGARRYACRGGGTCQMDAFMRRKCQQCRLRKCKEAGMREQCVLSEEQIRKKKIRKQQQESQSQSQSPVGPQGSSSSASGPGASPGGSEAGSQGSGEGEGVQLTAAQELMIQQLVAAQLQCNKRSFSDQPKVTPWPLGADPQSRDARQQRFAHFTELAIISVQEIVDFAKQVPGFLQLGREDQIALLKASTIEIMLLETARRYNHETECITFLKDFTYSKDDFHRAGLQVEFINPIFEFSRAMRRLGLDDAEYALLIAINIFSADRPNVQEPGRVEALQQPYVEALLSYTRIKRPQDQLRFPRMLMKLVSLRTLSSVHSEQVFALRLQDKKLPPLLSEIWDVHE

[4] = target: T4, Oxysterols receptor LXR-alpha (Homo sapiens, UniProt Q13133); test: Agonist activity at GAL4-fused human LXRalpha expressed in HEK293T cells assessed as activation of basal transcriptional activity after 20 hrs by dual-glo luciferase reporter gene assay; format: cell-based, HEK-293T
T4 sequence (Q13133 whole entry): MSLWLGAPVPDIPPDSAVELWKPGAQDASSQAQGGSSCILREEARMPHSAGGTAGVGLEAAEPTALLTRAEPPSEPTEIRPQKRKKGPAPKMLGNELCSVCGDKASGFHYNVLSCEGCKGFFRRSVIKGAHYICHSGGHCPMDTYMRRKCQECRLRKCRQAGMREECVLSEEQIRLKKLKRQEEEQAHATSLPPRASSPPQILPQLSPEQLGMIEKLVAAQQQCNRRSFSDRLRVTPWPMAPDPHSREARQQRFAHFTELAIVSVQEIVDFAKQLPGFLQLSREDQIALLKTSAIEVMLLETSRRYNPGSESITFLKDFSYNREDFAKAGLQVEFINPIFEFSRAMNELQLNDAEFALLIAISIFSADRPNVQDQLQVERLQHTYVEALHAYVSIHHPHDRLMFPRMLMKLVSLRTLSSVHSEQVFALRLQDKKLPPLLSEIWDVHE

[5] = target: T5, Nuclear receptor subfamily 1 group I member 2 (Homo sapiens, UniProt O75469); test: Agonist activity at GAL4-fused human PXR expressed in HEK293T cells assessed as activation of basal transcriptional activity after 20 hrs by dual-glo luciferase reporter gene assay; format: cell-based, HEK-293T
T5 sequence (O75469 whole entry): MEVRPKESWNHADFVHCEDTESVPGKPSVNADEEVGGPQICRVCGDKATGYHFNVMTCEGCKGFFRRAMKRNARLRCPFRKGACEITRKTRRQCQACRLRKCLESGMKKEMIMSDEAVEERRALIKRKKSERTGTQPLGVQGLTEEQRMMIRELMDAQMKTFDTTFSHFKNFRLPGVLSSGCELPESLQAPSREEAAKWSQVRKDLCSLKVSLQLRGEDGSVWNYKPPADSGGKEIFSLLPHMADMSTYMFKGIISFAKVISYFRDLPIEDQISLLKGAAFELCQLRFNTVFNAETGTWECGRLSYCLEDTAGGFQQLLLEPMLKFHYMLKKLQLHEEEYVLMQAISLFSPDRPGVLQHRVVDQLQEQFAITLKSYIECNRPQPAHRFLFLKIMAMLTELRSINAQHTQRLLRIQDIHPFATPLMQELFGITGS

PBMC [6] = test: Antiinflammatory activity in human PBMC assessed as inhibition of IL-17 production after 48 hrs by Sandwich ELISA; format: functional, cell-based
PBMC [7] = test: Antiinflammatory activity in human PBMC assessed as inhibition of IL-17 production after 48 hrs by Sandwich ELISA relative to control; format: functional
PBMC [8] = test: Inhibition of IFNgamma production in human PBMC after 48 hrs by Sandwich ELISA; format: functional, cell-based

| SMILES | EC50 (PBMC [1]) [µM] | EC50 [2] [µM] | EC50 (Bile acid receptor) [µM] | EC50 [3] [µM] | EC50 [4] [µM] | EC50 [5] [µM] | EC50 (PBMC [6]) [µM] | %max (PBMC [7]) [%] | EC50 (PBMC [8]) [µM] |
| --- | --- | --- | --- | --- | --- | --- | --- | --- | --- |
| O=C(O)c1ccc(-c2nc(C(=O)c3c(Cl)cccc3C(F)(F)F)n3ccccc23)c(F)c1 | > 10 | > 10 | > 10 | > 10 | > 10 | > 10 | 0.12 | 63 | > 10 |
| O=C(O)c1ccc(-c2nc(C(=O)c3c(Cl)cccc3C(F)(F)F)n3c2CCCC3)c(F)c1 | > 10 | > 10 | > 10 | > 10 | > 10 | > 10 | 0.23 | 64 | > 10 |
| O=C(O)c1ccc(-c2nc(C(=O)c3c(Cl)cccc3C3CC3)n3c2CCCC3)c(F)c1 | > 10 | > 10 | > 10 | > 10 | > 10 | > 10 | 0.3 | 72 | > 10 |
| O=C(O)c1ccc(-c2nc(C(=O)c3c(Cl)cccc3C(F)(F)F)n3ccccc23)cc1 | > 10 | > 10 | > 10 | > 10 | > 10 | > 10 | 0.23 | 69 | > 10 |
| O=C(O)c1ccc(-c2nc(C(=O)c3c(Cl)cccc3C(F)(F)F)n3ccccc23)cc1O | > 10 | > 10 | > 10 | > 10 | > 10 | > 10 | 0.017 | 70 | > 10 |
| O=C(O)c1ccc(-c2nc(C(=O)c3c(Cl)cccc3C3CC3)n3cccnc23)cc1O | > 10 | > 10 | > 10 | > 10 | > 10 | > 10 | 0.03 | 73 | > 10 |
